The record followed here is ChEMBL document CHEMBL2380259, “Indazole-based potent and cell-active Mps1 kinase inhibitors: rational design from pan-kinase inhibitor anthrapyrazolone (SP600125)” (J Med Chem, 2013).

The term IC50 denotes the concentration at which inhibition is half-maximal. In general, Papp refers to the rate of passage across a membrane or cell layer, normalised by area and donor concentration. The bioavailability is the share of a dose that reaches the circulation, judged against a reference dose that is usually intravenous. In general, Cmax refers to the peak of the concentration-time curve. The term AUC denotes concentration integrated over time. A word on the clearance: it is the rate of elimination divided by the concentration.

One data set concerns A549. Put plainly: cells. The settings on record: Homo sapiens, A549, 72 h.
Data set [1] addresses T1, Dual specificity protein kinase TTK (Homo sapiens, UniProt P33981).
T1 sequence (P33981 whole entry): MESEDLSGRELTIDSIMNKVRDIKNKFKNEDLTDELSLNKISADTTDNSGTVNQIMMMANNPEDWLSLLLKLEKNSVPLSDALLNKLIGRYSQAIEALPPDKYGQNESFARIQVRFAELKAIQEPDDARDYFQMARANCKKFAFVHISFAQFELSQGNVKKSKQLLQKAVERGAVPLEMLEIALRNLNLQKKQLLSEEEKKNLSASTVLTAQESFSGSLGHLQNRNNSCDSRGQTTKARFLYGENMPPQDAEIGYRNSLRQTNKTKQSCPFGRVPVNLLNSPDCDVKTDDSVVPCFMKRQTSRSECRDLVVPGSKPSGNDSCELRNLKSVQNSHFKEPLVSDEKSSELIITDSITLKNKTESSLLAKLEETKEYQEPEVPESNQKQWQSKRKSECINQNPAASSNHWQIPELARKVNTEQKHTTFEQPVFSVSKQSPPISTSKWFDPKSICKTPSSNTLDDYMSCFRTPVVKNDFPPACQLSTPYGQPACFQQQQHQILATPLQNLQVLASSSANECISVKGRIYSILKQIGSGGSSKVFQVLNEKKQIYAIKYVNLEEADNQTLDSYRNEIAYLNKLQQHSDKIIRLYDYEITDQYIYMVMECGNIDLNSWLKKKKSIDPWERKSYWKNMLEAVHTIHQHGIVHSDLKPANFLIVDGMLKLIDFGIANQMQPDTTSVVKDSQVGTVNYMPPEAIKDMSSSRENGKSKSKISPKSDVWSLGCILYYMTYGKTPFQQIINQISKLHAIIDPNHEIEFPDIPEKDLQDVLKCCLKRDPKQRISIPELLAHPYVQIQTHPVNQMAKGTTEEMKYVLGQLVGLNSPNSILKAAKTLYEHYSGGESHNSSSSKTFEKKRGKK
Kind of data set: Inhibition of MPS1 (unknown origin) using biotin-labeled AGAGLARHTDDEMTGYVA as substrate after 90 mins by DELFIA.

Data set [2] concerns the target Mitogen-activated protein kinase 8 (Homo sapiens, UniProt P45983). Put plainly: Inhibition of JNK1 (unknown origin) using ATF2 as substrate measured after 1 hr by ELISA. On the technique in general: In an ELISA, binding on a coated surface is turned into a signal by an enzyme label.
Data set [3] is described as follows: Lipophilicity index, log K of the compound by RP-HPLC analysis. The format is physicochemical.
Data set [4] deals with T1, Dual specificity protein kinase TTK. Kind of data set: Inhibition of FLAG-tagged MPS1 phosphorylation in human RERF-LC-AI Tet-off cells after 3 hrs. Type of data set: cell-based.
Data set [5] can be described thus: Apparent permeability across MDCK cells. Type of data set: ADME, cell-based, Canis lupus familiaris. As to conditions: dog.
Data set [6] is described as follows: Oral bioavailability in Sprague-Dawley rat at 1 mg/kg by LC-MS/MS analysis. The format is ADME, organism-based. As to conditions: in vivo.
Data set [7] is described as follows: Cmax in Sprague-Dawley rat at 1 mg/kg, po by LC-MS/MS analysis. Type of data set: ADME, organism-based. Details: dose 1 mg/kg, route oral. The settings on record: in vivo.
Data set [8] is described as follows: AUC in Sprague-Dawley rat at 1 mg/kg, po by LC-MS/MS analysis. Details: dose 1 mg/kg, route oral. The settings on record: plasma. The format is ADME, organism-based.
The nature of data set [9]: Volume of distribution at steady state in Sprague-Dawley rat at 0.5 mg/kg, iv by LC-MS/MS analysis. Type of data set: ADME, organism-based. Further details: dose 0.5 mg/kg, route intravenous. The settings on record: in vivo, read-out: Vdss.
Data set [10] can be described thus: Clearance in Sprague-Dawley rat at 0.5 mg/kg, iv by LC-MS/MS analysis. As to conditions: in vivo. Details: dose 0.5 mg/kg, route intravenous. Type of data set: ADME, organism-based.
Data set [11] can be described thus: Metabolic stability in Sprague-Dawley rat hepatocytes assessed as compound remaining at 2 uM after 1 hr by LC-MS/MS analysis. The format is ADME, cell-based, Hepatocyte. As to conditions: read-out: Stability.
The target of data set [12] is Serine/threonine-protein kinase PLK1 (Homo sapiens, UniProt P53350). Put plainly: Inhibition of human PLK1.
Serine/threonine-protein kinase PLK1, sequence (P53350 whole entry): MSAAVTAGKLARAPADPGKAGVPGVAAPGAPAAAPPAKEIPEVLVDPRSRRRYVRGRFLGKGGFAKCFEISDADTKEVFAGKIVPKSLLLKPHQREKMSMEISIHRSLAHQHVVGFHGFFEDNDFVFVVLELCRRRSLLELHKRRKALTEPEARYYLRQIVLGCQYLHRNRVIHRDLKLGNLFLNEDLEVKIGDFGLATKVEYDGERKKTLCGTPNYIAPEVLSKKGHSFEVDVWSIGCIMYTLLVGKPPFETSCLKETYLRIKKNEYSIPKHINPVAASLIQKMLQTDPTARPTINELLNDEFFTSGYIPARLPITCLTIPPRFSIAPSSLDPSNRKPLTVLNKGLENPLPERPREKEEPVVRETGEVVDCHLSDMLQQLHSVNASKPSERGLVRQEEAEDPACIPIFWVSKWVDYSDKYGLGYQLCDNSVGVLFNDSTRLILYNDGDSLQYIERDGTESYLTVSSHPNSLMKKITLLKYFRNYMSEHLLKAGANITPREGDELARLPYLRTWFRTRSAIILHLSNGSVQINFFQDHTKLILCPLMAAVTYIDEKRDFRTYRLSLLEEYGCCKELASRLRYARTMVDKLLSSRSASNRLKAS
The target in data set [13] is T1, Dual specificity protein kinase TTK.

Mitogen-activated protein kinase 8, sequence (P45983 whole entry): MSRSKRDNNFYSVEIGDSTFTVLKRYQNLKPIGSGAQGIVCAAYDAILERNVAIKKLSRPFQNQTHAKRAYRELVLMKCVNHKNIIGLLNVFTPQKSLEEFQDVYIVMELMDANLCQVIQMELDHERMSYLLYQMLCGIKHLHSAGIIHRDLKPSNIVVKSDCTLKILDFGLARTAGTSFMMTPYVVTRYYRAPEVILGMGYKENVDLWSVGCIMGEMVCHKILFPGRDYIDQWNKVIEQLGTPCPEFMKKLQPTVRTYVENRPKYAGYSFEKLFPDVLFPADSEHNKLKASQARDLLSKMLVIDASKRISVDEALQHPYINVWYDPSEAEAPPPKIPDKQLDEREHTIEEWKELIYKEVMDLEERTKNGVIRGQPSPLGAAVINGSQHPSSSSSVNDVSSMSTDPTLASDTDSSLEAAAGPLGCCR

The compound `CCc1cccc(CC)c1NC(=O)c1nn(C)c2c1CCc1cnc(Nc3ccc(C(=O)NC4CCN(C)CC4)cc3OC(F)(F)F)nc1-2` had an IC50 with A549 of 1250 nM.
On the same count and under the same terms, then `Cc1cc(N2CCOCC2)ccc1Nc1nc(NC2CCCCC2)c2nc[nH]c2n1`, with greater than 10000 nM.
Turning to `CCOc1ccc2[nH]nc(-c3ccccc3)c2c1`, in data set [1], half-maximal inhibition (IC50) was put at 498 nM.
For the compound `CCOc1ccc2[nH]nc(-c3ccc(NC(C)=O)cc3)c2c1`, the IC50 in data set [2] is 169 nM; in data set [1], 438 nM.
With `CCOc1ccc2[nH]nc(-c3cccc(NC(C)=O)c3)c2c1`, the IC50 in data set [2] was found to be 79.5 nM; in data set [1] it was 116 nM.
The matching figures for `CCOc1ccc2[nH]nc(-c3cccc(C(N)=O)c3)c2c1`: 42.8 nM and 189 nM.
Regarding `CCOc1ccc2[nH]nc(-c3cccc(S(N)(=O)=O)c3)c2c1`, the “log K” value in [3] was found to be 0.79. For the same compound, the concentration for half-maximal inhibition (IC50) in [4] was 2740 nM; in [2] it was 150 nM; in [1] it was 28 nM; in the data set on A549 it was greater than 20000 nM.
On to `CCOc1cc2c(-c3cccc(S(N)(=O)=O)c3)n[nH]c2cc1C#N`, for which, in data set [3], the “log K” value came to 0.86. Also, the IC50 was 3350 nM in data set [4], 175 nM in data set [2], 17 nM in data set [1] and greater than 20000 nM in the data set on A549.
Consider `CCOc1cc2c(-c3cccc(NC(C)=O)c3)n[nH]c2cc1C#N`, for which the “log K” value in [3] turned out to be 0.87. The IC50 in [4] came to 9720 nM; in [2] it was 43 nM; in data set [1], 32 nM; in the data set on A549, 6380 nM.
As for `CCOc1cc2c(-c3cccc(S(N)(=O)=O)c3)n[nH]c2cc1-c1ccccc1`, in [3], the “log K” value was 0.91. Besides, the 50% inhibitory concentration (IC50) was greater than 10000 nM in [4], 1030 nM in [2], 173 nM in [1] and greater than 10000 nM with A549.
On to `CCOc1cc2c(-c3cccc(S(N)(=O)=O)c3)n[nH]c2cc1-c1cn[nH]c1`, for which, in [3], the “log K” value is listed as 0.74. For the same compound, the half-inhibitory concentration (IC50) in [4] is 2070 nM; in [2] it was 141 nM; in data set [1], 9.76 nM; in the data set on A549, greater than 10000 nM.
Regarding `CCOc1cc2c(-c3cccc(S(N)(=O)=O)c3)n[nH]c2cc1-c1cnn(C)c1`, in [5], the Papp is 0.6 ×10⁻⁶ cm/s. Also, the “log K” value in [3] came out at 0.79. For the same compound, the IC50 in [4] worked out at 85.8 nM; in [2], 93.7 nM; in data set [1], 3.06 nM; with A549, 1020 nM.
For the compound `CCOc1cc2c(-c3ccc(C)c(S(N)(=O)=O)c3)n[nH]c2cc1-c1cnn(C)c1`, the “log K” value in data set [3] worked out at 0.82. The IC50 in data set [4] was 198 nM; in data set [2] it was 43.5 nM; in data set [1] it was 3.67 nM; in the data set on A549 it was 686 nM.
With `CCOc1cc2c(-c3cccc(S(N)(=O)=O)c3)n[nH]c2cc1-c1cnn(CC(C)C)c1`, the “log K” value in [3] came out at 0.87. For the same compound, the IC50 in [4] worked out at 4110 nM; in data set [2] it was 441 nM; in [1] it was 119 nM; in the data set with A549, 6460 nM.
For `Cn1cc(-c2cc3[nH]nc(-c4cccc(S(N)(=O)=O)c4)c3cc2OC2CCCCC2)cn1`, the “log K” value in [3] was determined as 0.93. Besides, the IC50 was found to be 74 nM in data set [4], 118 nM in data set [2], 7.93 nM in [1] and 646 nM in the data set on A549.
Consider `Cn1cc(-c2cc3[nH]nc(-c4cccc(S(N)(=O)=O)c4)c3cc2NC2CCCCC2)cn1`, for which the bioavailability in data set [6] was found to be 2.3%. In data set [7], this compound came in with a Cmax of 1.4 ng/mL. Further, in data set [8], the AUC is 11.5 ng·h/mL. The Vd in data set [9] turned out to be 2.8 L/kg. The compound also displayed a clearance in data set [10] of 33 mL/min/kg. For the same compound, in data set [11], the remaining at 1 h, 2 µM came to 69%. In addition, the 50% inhibitory concentration (IC50) was greater than 5000 nM in data set [12]; 20.5 nM in [4]; 37 nM in data set [2]; 10.4 nM in [1]; 152 nM with A549. In addition, the Papp in data set [5] was 2.69 ×10⁻⁶ cm/s. The “log K” value in data set [3] was found to be 0.92.
`CC(=O)Nc1cccc(-c2n[nH]c3cc(-c4cnn(C)c4)c(NC4CCCCC4)cc23)c1`: in [6], the bioavailability turned out to be 17%. This compound yielded a Cmax in [7] of 18 ng/mL. In [8], this compound had an AUC of 149 ng·h/mL. Further, in data set [9], the Vd is 1 L/kg. Moreover, the clearance in data set [10] is 19 mL/min/kg. Moreover, in data set [11], the remaining at 1 h, 2 µM was 64%. In addition, the IC50 in data set [12] is greater than 5000 nM; in data set [4], 30.4 nM; in data set [2], 12.1 nM; in data set [1], 12 nM; in the data set with A549, 283 nM. For the same compound, the Papp in data set [5] is 20.5 ×10⁻⁶ cm/s. The “log K” value in data set [3] is on record as 0.94.
In [1], `c1ccc(-c2[nH]nc3ccccc23)cc1` had an IC50 of 2100 nM.
Regarding `Oc1c2ccccc2c2c3c(cccc13)N=N2` [SP-600125], the IC50 in data set [13] is 98 nM.
